The values that follow are results of earlier work, collected in publication PMC3068529 (Journal of the American Chemical Society, 2011).

The series concerns the target T1, TLR3 (Homo sapiens, UniProt O15455).
T1 sequence (O15455 24-904): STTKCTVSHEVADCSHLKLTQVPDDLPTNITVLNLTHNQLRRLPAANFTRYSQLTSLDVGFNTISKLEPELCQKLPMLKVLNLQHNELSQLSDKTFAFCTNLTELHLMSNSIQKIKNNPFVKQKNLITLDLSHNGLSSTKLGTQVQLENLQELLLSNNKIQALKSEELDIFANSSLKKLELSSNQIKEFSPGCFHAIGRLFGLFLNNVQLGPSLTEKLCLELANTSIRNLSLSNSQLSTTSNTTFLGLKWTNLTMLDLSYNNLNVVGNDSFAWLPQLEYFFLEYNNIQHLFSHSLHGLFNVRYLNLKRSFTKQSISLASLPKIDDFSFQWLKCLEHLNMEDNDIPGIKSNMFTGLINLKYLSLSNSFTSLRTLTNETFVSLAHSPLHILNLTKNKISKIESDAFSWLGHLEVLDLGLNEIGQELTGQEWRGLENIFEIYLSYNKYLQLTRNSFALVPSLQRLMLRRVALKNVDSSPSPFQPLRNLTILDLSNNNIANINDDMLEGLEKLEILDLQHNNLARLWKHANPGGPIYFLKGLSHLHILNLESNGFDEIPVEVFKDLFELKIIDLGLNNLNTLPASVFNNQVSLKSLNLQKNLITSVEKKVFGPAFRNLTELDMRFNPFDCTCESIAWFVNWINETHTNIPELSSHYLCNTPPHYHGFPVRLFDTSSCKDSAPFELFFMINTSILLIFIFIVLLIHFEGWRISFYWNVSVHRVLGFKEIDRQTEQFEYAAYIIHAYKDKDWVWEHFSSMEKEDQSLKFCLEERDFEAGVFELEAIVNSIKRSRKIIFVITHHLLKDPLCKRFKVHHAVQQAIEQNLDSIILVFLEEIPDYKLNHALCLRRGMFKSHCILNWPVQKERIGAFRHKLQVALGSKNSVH
The settings on record: dsRNA binding to TLR3.

For the substance “polyriboinosinic:polyribocytidylic acid [dsRNA]”, the dissociation constant (Kd) (in general, the equilibrium constant for the complex coming apart) was 0.019 ± 0.0009 µM.
